Experimental data from patent US11246873B2, “Directed differentiation of oligodendrocyte precursor cells to a myelinating cell fate” (The Scripps Research Institute, priority 2011, dated 2022).
Entries after “also recorded” stand apart in the source; their conditions may differ. Like-named read-outs stand apart in the source and are kept apart here.

How the values were obtained:
[1] = system: C57BL/6 mice fed cuprizone; settings: for remyelination / myelin staining in the corpus callosum versus vehicle, week 2: 2 weeks after cuprizone withdrawal
Source text: Data is represented in terms of threshold bins on the grey scale (0-50) as described. Error bars represent standard deviations of at least 6 corpus callosum regions.
(B) Images were converted to a 256 shade grey scale. (C) The 256 shades of grey were divided into 5 bins of 50 shades each. Number of objects in the corpus callosum region in each bin were counted using Image-Pro plus.
By administering drugs at the time when a cuprizone-free diet is reintroduced, the efficacy of promyelinating agents can be examined by evaluating the relative kinetics of OPC dependent remyelination (T. Skripuletz et al., Am J Pathol, 172, 1053 (2008)). […] Drug or vehicle treated mice were sacrificed in groups of 5 weekly for 5 weeks, following drug treatment, and remyelination was quantitatively evaluated by staining the corpus callosum regions of harvested brains with LFB (FIG. 9A, B).

[2] = system: OPCs; test: qRT-PCR of MBP and MOG expression in compound treated OPCs; type: cell-based, rat; settings: EC90 concentrations, 6 days
Source text: FIG. 2A-C. […] (A) Western blot analysis of OPCs treated with compounds at EC90 concentrations for 6 days. Total protein was isolated from cell pellets and probed for myelin basic protein (MBP) and myelin oligodendrocyte glycoprotein (MOG) using specific antibodies. (B-C) Quantitative RT-PCR (qRT-PCR) analysis of OPCs treated with compounds at EC90 concentrations for 6 days. Total RNA was isolated from cell pellets and reverse transcribed. MBP and MOG expression was quantified using specific probes and Taqman-based qRT-PCR. Expression was normalized to the internal controls β-actin and GAPDH. Fold change in gene expression over DMSO treated control cells is plotted for MBP (B) and MOG (C).

[3] = system: dopamine D2 and D3 receptor; type: cell-based, rat
Source text: Error bars indicate standard deviations of 3 replicate measurements.
OPCs express mAChRs, predominantly subtypes M1, M3, and M5 (F. Ragheb et al., J Neurochem, 77, 1396 (2001)). […] Activation of M1 and M3 mAChRs is coupled to downstream signal transduction events through phospholipase C, which results in increased intracellular calcium concentrations (F. Ragheb et al., J Neurochem, 77, 1396 (2001)) (FIG. 23C). M2 and M4 mAChR activation inhibits adenylatecyclase, leading to decreased intracellular cAMP levels (C. C. Felder, FASEB J, 9, 619 (1995); M. Lopez-Ilasaca et al., Science, 275, 394 (1997)). […] Acetylcholine is a known regulator of OPC proliferation and, as such, muscarinic receptor subtypes represent a reasonable class of therapeutic targets for the modulation of OPC proliferation and differentiation (F. De Angelis et al., Dev Neurobiol, (2011)).

[4] = system: splenocytes of normal mice; test: Immune cell populations and cytokine production in splenocytes of normal mice; type: in vivo, mouse; settings: 10 mg/kg i.p., 14 days; for cytokine production (IL2, IL10, TNF, IFN-γ producing CD4+ T-cells) / number of B cells: 10 mg/kg
Source text: Total splenocytes were isolated from the mice, stimulated with PMA and ionomycin and analyzed for various populations of immune cells and cytokine secretion after 48 hrs. Protein transport was blocked in cells used for cytokine analysis using monoeiosin. […] Error bars indicate standard deviation of the mean within each group of 5 mice.
The primary immunological processes involved in MS and EAE are T-cell mediated and the primary treatment paradigms are based on immunomodulatory drugs (T. Kopadze et al., Arch Neurol, 63, 1572 (2006); J. M. Greer et al., J Immunol, 180, 6402 (2007), M. P. Pender and J. M. Greer, curr Allergy Asthma Rep, 7, 285 (2007)).

[5] = system: rat optic nerve derived OPCs; test: High content imaging assay of OPC differentiation (MBP immunostaining, OPERA); type: cell-based; settings: OPCs in differentiation medium (2 ng/ml PDGF), 6 days
Experimental: FIG. 1A-C. […] The calculated EC50 values were determined using appropriate Graphpad Prism 5.0 curve fitting software. […] OPCs were plated in 384 well plates at 1000 cells per well in OPC media containing basal PDGF-αα (2 ng/mL) and treated with serial dilutions of compounds. Following six days of compound treatment, cells were fixed and subjected to immunofluorescence analysis using anti-myelin basic protein (MBP) antibody. Image acquisition and quantification of MBP staining was performed using the OPERA imaging system.
FIG. 11A-B. Screen to identify inducers of OPC differentiation. (A) OPCs were maintained as proliferating A2B5-positive cells under basal growth conditions (Neurobasal medium, B27 supplement without Vitamin A, non-essential amino acids, L-Glutamine, 30 ng/ml PDGF). OPCs were plated in basal differentiation media (Neurobasal medium, B27 supplement without Vitamin A, non-essential amino acids, L-Glutamine, 2 ng/ml PDGF), treated with DMSO (<0.1%) or thyroid hormone (1 uM), fixed after 6 days in culture, and stained using antibodies for CNP, O4, or MBP. […] (B) Screen strategy using A2B5 positive OPCs cultured under basal differentiation conditions and treated with compounds for 6 days to identify small molecules that induce the differentiation of OPCs to mature, MBP expressing oligodendrocytes.
FIG. 12A-B. Primary hit confirmation. (A) Dose response assay used to confirm primary screening hits and determine potency (EC50). (EC50) is defined as the concentration that results in a half maximal increase in the percentage of total cells that express MBP as detected by immunostaining. […] Cells were fixed and immunostained using antibodies for MBP. Error bars represent standard deviations from 3 replicate experiments. […]
FIG. 21. […] OPCs were plated in differentiation medium (2 ng/ml PDGF) and treated with various concentrations of compounds for 6 days. Cells were fixed and immunostained for MBP.
A large-scale small molecule screen was conducted to identify small molecules that promote the differentiation of oligodendrocyte precursor cells (OPCs) to a mature myelinating fate. High content imaging was used to detect in-well differentiation of rat optic nerve derived OPCs. Rat optic nerve derived OPCs were expanded en masse in OPC media containing 30 ng/mL PDGFαα. To screen for small molecule inducers of OPC differentiation, OPCs (cultured for fewer than 15 passages) were plated in poly-D-lysine coated 384 well culture plates in OPC Media containing 2 ng/mL PDGFαα and immediately treated with compounds at a final concentration of 6 μM (0.6% DMSO). Compound treated cells were incubated at 37° C., 5% CO2 for 6 days. At the end of 6 days, cells were fixed in 4% paraformaldehyde and subjected to immunofluorescence analysis. Anti-Myelin Basic Protein monoclonal antibody (a.a. 129-138, clone 1 monoclonal antibody, Millipore) (1:1000 dilution) in blocking buffere solution (3% BSA, 0.3% Triton X-100 in PBS) was added to fixed and washed cells and incubated at 4° C. overnight.

SMILES	remyelination / myelin staining in the corpus callosum versus vehicle, week 2 ([1]; 10 mg/kg i.p.)	remyelination / myelin staining in the corpus callosum versus vehicle, week 2 ([1]; 10 mg/kg i.p., listed as benzatropine)	increase in myelin staining in the corpus callosum versus vehicle ([1]; 10 mg/kg i.p., 2 weeks after drug treatment) [fold]	myelin staining versus vehicle at later time points ([1]; 10 mg/kg i.p., up to 5 weeks)	toxicity to mature oligodendrocytes ([1]; mouse, in vivo)	induction of MBP expression (qRT-PCR) over DMSO [2]	induction of MOG expression (qRT-PCR) over DMSO [2]	effect of quinpirole or haloperidol on benztropine induced differentiation / dopamine D2 and D3 receptor signaling [3]	number of total splenocytes, CD4+, CD8+, CD4+/CD44Hi and CD8+/CD44Hi T-cells [4]	cytokine production (IL2, IL10, TNF, IFN-γ producing CD4+ T-cells) [4]	number of B cells [4]	cytokine production (IL2, IL10, TNF, IFN-γ producing CD4+ T-cells) ([4]; listed as Benztropine)	number of B cells ([4]; listed as Benztropine)	induction of OPC differentiation (MBP staining) [5]
CN1[C@@H]2CC[C@H]1C[C@@H](OC(c1ccccc1)c1ccccc1)C2 [benztropine]	significant increase in myelin staining in the corpus callosum	increased remyelination	~2	significant differences were not observed	not toxic to mature oligodendrocytes	two-fold	two-fold	neither the dopamine receptor antagonist haloperidol, nor the dopamine receptor agonist quinpirole affected; also recorded: no effect	no effect	no effect on cytokine production	minor but significant decrease	no effect	no effect	promote OPC differentiation; also recorded: dose dependent activity
CN1CCN(CCCN2c3ccccc3Sc3ccc(C(F)(F)F)cc32)CC1 [trifluoperazine]	–	–	–	–	–	two-fold	two-fold	–	–	–	–	–	–	promote OPC differentiation
